Earlier results as cited in patent US20230399335A1, “PROCESS FOR THE PREPARATION OF ASENAPINE IN THE FORM OF ITS FREE BASE” (LTS LOHMANN Therapie-Systeme AG, priority 2020, published 2023).

Conditions: when taken orally

CN1C[C@H]2c3ccccc3Oc3ccc(Cl)cc3[C@@H]2C1 (relative stereo) [asenapine, (3aRS,12bRS)-rel-5-chloro-2,3,3a,12b-tetrahydro-2-methyl-1H-dibenz[2,3:6,7]oxepin [4,5-c]pyrrole]
bioavailability: < 2%
